From patent US12203124B2, “Methods for improved rapid antimicrobial susceptibility testing” (priority 2016, dated 2025)
≈ marks a conversion by molar mass, not a printed value. Like-named read-outs stand apart in the source and are kept apart here.

Legend:
E. coli strains = test: CLSI overnight reference method, broth microdilution MIC; type: cell-based; conditions: for MIC (CLSI Ref): unit assumed
P. aeruginosa = test: Rapid AST by surface binding of europium probe, time resolved fluorescence; type: cell-based; conditions: Pseudomonas aeruginosa
Method: The x-axis of each graph denotes the concentrations of antimicrobial Amikacin (AMK) in micrograms/milliliter, and the y-axis denotes fluorescence from binding to bacteria surface. Growth check data measured by optical density (Absorbance at 600 nm) of the bacterial culture is denoted for each strain.
AST was performed by surface binding of probe followed by time resolved fluorescence. The P. aeruginosa strains were incubated at 35° C. in shaking conditions for 4 hours for attaining growth, and growth check was performed by measuring absorbance of the culture at 600 nm after 4 hours of growth.

[1] = E. coli strain Clinical Sample 1
[2] = E. coli strain Clinical Sample 2
[3] = E. coli strain Clinical Sample 4
[4] = E. coli strain Clinical Sample 5
[5] = E. coli strain Clinical Sample 6
[6] = E. coli strain Clinical Sample 7
[7] = E. coli strain Clinical Sample 8
[8] = E. coli strain Clinical Sample 9
[9] = E. coli strain Clinical Sample 10
[10] = E. coli strain Clinical Sample 11
[11] = E. coli strain Clinical Sample 12
[12] = E. coli strain Clinical Sample 13

Row | Compound | MIC (CLSI Ref) (E. coli strains; E. coli strain BEI 4.097) | MIC (CLSI Ref) (E. coli strains; E. coli strain CDC Carba36) | MIC (CLSI Ref) (E. coli strains; [1]) | MIC (CLSI Ref) (E. coli strains; [2]) | MIC (CLSI Ref) (E. coli strains; [3]) | MIC (CLSI Ref) (E. coli strains; [4]) | MIC (CLSI Ref) (E. coli strains; [5]) | MIC (CLSI Ref) (E. coli strains; [6]) | MIC (CLSI Ref) (E. coli strains; [7]) | MIC (CLSI Ref) (E. coli strains; [8]) | MIC (CLSI Ref) (E. coli strains; [9]) | MIC (CLSI Ref) (E. coli strains; [10]) | MIC (CLSI Ref) (E. coli strains; [11]) | MIC (CLSI Ref) (E. coli strains; [12]) | Interpretation letter (E. coli strains; [2]) | MIC (P. aeruginosa; P. aeruginosa Strain 1, growth check value 2.18, 4 hours at 35° C., read-out: MIC) | MIC (P. aeruginosa; P. aeruginosa Strain 2, no reliable MIC at growth checkpoint value 1.13, read-out: expected MIC)
1 | CC(C)(O/N=C(\C(=O)N[C@@H]1C(=O)N2C(C(=O)[O-])=C(C[n+]3ccccc3)CS[C@H]12)c1csc(N)n1)C(=O)O [CAZ, Ceftazidime] | 0.25 µg/mL (≈ 0.457 µM) | 4 µg/mL (≈ 7.32 µM) | 0.25 µg/mL (≈ 0.457 µM) | 2 µg/mL (≈ 3.66 µM) | 0.25 µg/mL (≈ 0.457 µM) | 0.25 µg/mL (≈ 0.457 µM) | 0.12 µg/mL (≈ 0.22 µM) | 0.25 µg/mL (≈ 0.457 µM) | > 32 µg/mL | > 32 µg/mL | 0.12 µg/mL (≈ 0.22 µM) | 0.25 µg/mL (≈ 0.457 µM) | 0.12 µg/mL (≈ 0.22 µM) | 0.12 µg/mL (≈ 0.22 µM) | – | – | –
2 | CC1(C)S[C@@H]2[C@H](NC(=O)[C@H](N)c3ccccc3)C(=O)N2[C@H]1C(=O)O [AMP, Ampicillin] | 4 µg/mL (≈ 11.4 µM) | > 32 µg/mL | 4 µg/mL (≈ 11.4 µM) | > 32 µg/mL | > 32 µg/mL | > 32 µg/mL | 4 µg/mL (≈ 11.4 µM) | > 32 µg/mL | > 32 µg/mL | > 32 µg/mL | > 32 µg/mL | 4 µg/mL (≈ 11.4 µM) | 4 µg/mL (≈ 11.4 µM) | > 32 µg/mL | – | – | –
3 | Penicillin | 16 µg/mL | > 16 µg/mL | > 16 µg/mL | > 16 µg/mL | > 16 µg/mL | > 16 µg/mL | 16 µg/mL | > 16 µg/mL | > 16 µg/mL | > 16 µg/mL | > 16 µg/mL | > 16 µg/mL | > 16 µg/mL | 16 µg/mL | – | – | –
4 | CN(C)[C@@H]1C(=O)C(C(N)=O)=C(O)[C@@]2(O)C(=O)C3=C(O)c4c(O)cccc4[C@@](C)(O)[C@H]3C[C@@H]12 [TET, Tetracycline] | 32 µg/mL (≈ 72 µM) | 8 µg/mL (≈ 18 µM) | 4 µg/mL (≈ 9 µM) | > 32 µg/mL | 4 µg/mL (≈ 9 µM) | > 32 µg/mL | 2 µg/mL (≈ 4.5 µM) | 4 µg/mL (≈ 9 µM) | 8 µg/mL (≈ 18 µM) | 4 µg/mL (≈ 9 µM) | 4 µg/mL (≈ 9 µM) | 4 µg/mL (≈ 9 µM) | 4 µg/mL (≈ 9 µM) | 4 µg/mL (≈ 9 µM) | R | – | –
5 | CO/N=C(\C(=O)N[C@@H]1C(=O)N2C(C(=O)O)=C(CSc3nc(=O)c(=O)[nH]n3C)CS[C@H]12)c1csc(N)n1 [CRO, Ceftriaxone] | < 0.12 µg/mL | 1 µg/mL (≈ 1.8 µM) | < 0.12 µg/mL | 2 µg/mL (≈ 3.61 µM) | < 0.12 µg/mL | < 0.12 µg/mL | < 0.12 µg/mL | < 0.12 µg/mL | 64 µg/mL (≈ 115 µM) | > 64 µg/mL | < 0.12 µg/mL | < 0.12 µg/mL | < 0.12 µg/mL | < 0.12 µg/mL | I | – | –
6 | Trimethoprim-Sulfamethoxazole [SXT] | < 0.5 µg/mL | < 0.5 µg/mL | < 0.5 µg/mL | 4 µg/mL | > 32 µg/mL | > 32 µg/mL | 2 µg/mL | > 32 µg/mL | < 0.5 µg/mL | > 32 µg/mL | > 32 µg/mL | < 0.5 µg/mL | < 0.5 µg/mL | < 0.5 µg/mL | R | – | –
7 | Imipenem/Cilastatin [IPM] | < 0.12 µg/mL | < 0.12 µg/mL | < 0.12 µg/mL | < 0.12 µg/mL | 0.25 µg/mL | < 0.12 µg/mL | < 0.12 µg/mL | < 0.12 µg/mL | 0.5 µg/mL | < 0.12 µg/mL | < 0.12 µg/mL | 0.25 µg/mL | < 0.12 µg/mL | < 0.12 µg/mL | – | – | –
8 | C[C@@H](O)[C@H]1C(=O)N2C(C(=O)O)=C(S[C@@H]3CN[C@H](C(=O)N(C)C)C3)[C@H](C)[C@H]12 [MEM, Meropenem] | < 0.06 µg/mL | < 0.06 µg/mL | < 0.06 µg/mL | < 0.06 µg/mL | < 0.06 µg/mL | < 0.06 µg/mL | < 0.06 µg/mL | < 0.06 µg/mL | < 0.06 µg/mL | < 0.06 µg/mL | < 0.06 µg/mL | < 0.06 µg/mL | < 0.06 µg/mL | < 0.06 µg/mL | – | – | –
9 | Gentamycin | 0.5 µg/mL | 2 µg/mL | 0.5 µg/mL | 4 µg/mL | 0.5 µg/mL | 2 µg/mL | 0.5 µg/mL | 0.5 µg/mL | 1 µg/mL | 1 µg/mL | > 16 µg/mL | 2 µg/mL | 1 µg/mL | 1 µg/mL | – | – | –
10 | C[C@H]1[C@H](NC(=O)/C(=N\OC(C)(C)C(=O)O)c2csc(N)n2)C(=O)N1S(=O)(=O)O [ATM, Aztreonam] | < 0.25 µg/mL | 8 µg/mL (≈ 18.4 µM) | < 0.25 µg/mL | 0.5 µg/mL (≈ 1.15 µM) | < 0.25 µg/mL | < 0.25 µg/mL | < 0.25 µg/mL | < 0.25 µg/mL | 64 µg/mL (≈ 147 µM) | 32 µg/mL (≈ 73.5 µM) | < 0.25 µg/mL | < 0.25 µg/mL | < 0.25 µg/mL | < 0.25 µg/mL | – | – | –
11 | NC[C@H]1O[C@H](O[C@H]2[C@H](O)[C@@H](O[C@H]3O[C@H](CO)[C@@H](O)[C@H](N)[C@H]3O)[C@H](N)C[C@@H]2N)[C@H](N)C[C@@H]1O [TOB, Tobramycin] | 1 µg/mL (≈ 2.14 µM) | 1 µg/mL (≈ 2.14 µM) | 2 µg/mL (≈ 4.28 µM) | 1 µg/mL (≈ 2.14 µM) | 1 µg/mL (≈ 2.14 µM) | 1 µg/mL (≈ 2.14 µM) | 1 µg/mL (≈ 2.14 µM) | 1 µg/mL (≈ 2.14 µM) | 2 µg/mL (≈ 4.28 µM) | 4 µg/mL (≈ 8.56 µM) | 16 µg/mL (≈ 34.2 µM) | 1 µg/mL (≈ 2.14 µM) | 1 µg/mL (≈ 2.14 µM) | 1 µg/mL (≈ 2.14 µM) | – | – | –
12 | C[C@H]1COc2c(N3CCN(C)CC3)c(F)cc3c(=O)c(C(=O)O)cn1c23 [LVX, Levofloxacin] | < 0.06 µg/mL | > 8 µg/mL | < 0.06 µg/mL | < 0.06 µg/mL | > 8 µg/mL | > 8 µg/mL | < 0.06 µg/mL | < 0.06 µg/mL | < 0.06 µg/mL | > 8 µg/mL | 8 µg/mL (≈ 22.1 µM) | < 0.06 µg/mL | 0.5 µg/mL (≈ 1.38 µM) | < 0.06 µg/mL | – | – | –
13 | Ampicillin/sulbactam [SAM] | 8 µg/mL | > 32 µg/mL | 4 µg/mL | 16 µg/mL | 16 µg/mL | 8 µg/mL | 2 µg/mL | 16 µg/mL | 64 µg/mL | 32 µg/mL | 16 µg/mL | 4 µg/mL | 2 µg/mL | > 32 µg/mL | I | – | –
14 | Colistin [CST] | 0.12 µg/mL | 0.25 µg/mL | 0.12 µg/mL | 0.12 µg/mL | 0.25 µg/mL | 0.25 µg/mL | 0.12 µg/mL | 0.12 µg/mL | 0.12 µg/mL | 0.5 µg/mL | 0.25 µg/mL | 0.5 µg/mL | 0.25 µg/mL | 0.25 µg/mL | – | – | –
15 | Piperacillin/tazobactam [TZP] | 4 µg/mL | 128 µg/mL | 4 µg/mL | 8 µg/mL | 4 µg/mL | 4 µg/mL | 2 µg/mL | 4 µg/mL | 32 µg/mL | > 128 µg/mL | 2 µg/mL | 2 µg/mL | 2 µg/mL | 32 µg/mL | – | – | –
16 | NCC[C@H](O)C(=O)N[C@@H]1C[C@H](N)[C@@H](O[C@H]2O[C@H](CN)[C@@H](O)[C@H](O)[C@H]2O)[C@H](O)[C@H]1O[C@H]1O[C@H](CO)[C@@H](O)[C@H](N)[C@H]1O [AMK, Amikacin] | 4 µg/mL (≈ 6.83 µM) | 4 µg/mL (≈ 6.83 µM) | 4 µg/mL (≈ 6.83 µM) | 4 µg/mL (≈ 6.83 µM) | 4 µg/mL (≈ 6.83 µM) | 4 µg/mL (≈ 6.83 µM) | 4 µg/mL (≈ 6.83 µM) | 2 µg/mL (≈ 3.42 µM) | 4 µg/mL (≈ 6.83 µM) | 4 µg/mL (≈ 6.83 µM) | 8 µg/mL (≈ 13.7 µM) | 4 µg/mL (≈ 6.83 µM) | 4 µg/mL (≈ 6.83 µM) | 4 µg/mL (≈ 6.83 µM) | – | 8 µg/mL (≈ 13.7 µM) | 8 µg/mL (≈ 13.7 µM)
17 | C[C@@H](O)[C@H]1C(=O)N2C(C(=O)O)=C(S[C@@H]3CN[C@H](C(=O)Nc4cccc(C(=O)O)c4)C3)[C@H](C)[C@H]12 [ERT, Ertapenem] | 0.008 µg/mL (≈ 0.0168 µM) | 0.12 µg/mL (≈ 0.252 µM) | 0.008 µg/mL (≈ 0.0168 µM) | 0.015 µg/mL (≈ 0.0315 µM) | 0.008 µg/mL (≈ 0.0168 µM) | 0.008 µg/mL (≈ 0.0168 µM) | 0.008 µg/mL (≈ 0.0168 µM) | 0.008 µg/mL (≈ 0.0168 µM) | 0.25 µg/mL (≈ 0.526 µM) | 0.12 µg/mL (≈ 0.252 µM) | 0.008 µg/mL (≈ 0.0168 µM) | 0.008 µg/mL (≈ 0.0168 µM) | 0.008 µg/mL (≈ 0.0168 µM) | 0.016 µg/mL (≈ 0.0336 µM) | – | – | –
